Source: publication PMC8595653, “Activation of specific bitter taste receptors by olive oil phenolics and secoiridoids” (Scientific Reports, 2021)
“Also recorded” adds a separate entry of the source. Values belong to the compound of their own block, whether it stands above or below them.

Tests used:
TAS2R5 = target: T1, TAS2R5 (Homo sapiens, UniProt Q9NYW4); test: Calcium mobilization functional assay, TAS2R5; type: cell-based; conditions: 1 mM, versus empty pcDNA vector
T1 construct: first 45 amino acids of rat somatostatin type 3 receptor (SSTR3) export tag (N); expressed in transfected cells; host or cells: HEK293E
T1 sequence (Q9NYW4 whole entry): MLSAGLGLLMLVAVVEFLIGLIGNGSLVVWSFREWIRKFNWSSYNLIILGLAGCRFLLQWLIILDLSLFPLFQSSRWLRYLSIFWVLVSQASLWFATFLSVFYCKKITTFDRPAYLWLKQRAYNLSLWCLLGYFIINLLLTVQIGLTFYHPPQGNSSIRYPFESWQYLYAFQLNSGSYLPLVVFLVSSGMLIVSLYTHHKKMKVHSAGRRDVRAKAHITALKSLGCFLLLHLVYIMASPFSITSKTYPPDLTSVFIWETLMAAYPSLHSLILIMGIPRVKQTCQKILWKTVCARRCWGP
Text: (§1) All constructs were confirmed by DNA sequencing.
(§2) Data from single dose experiments were collected as duplicates. […] Data represent mean ± SD.

TRPA1 receptor/channels = system: TRPA1 receptor/channels; design: method as in PMID 21248124; conditions: cited from earlier work
25 human TAS2Rs = test: Single dose scanning of phenolic compounds on the 25 bitter taste receptors (calcium mobilization, HEK293E); type: cell-based; conditions: single dose 300 µM, 25 TAS2Rs, N = 2
Procedure: as §1, §2
To characterize the bitterness of olive oil phenolic compounds, we performed calcium mobilization experiments. The 25 bitter taste receptors, G protein chimera (Gα16-gus44), and the GCaMP calcium sensor[68] were transiently expressed in HEK293E cells. Twelve olive oil phenolic compounds (Fig. 1) were tested for bitter taster receptor activation (Fig. 3). […] Ligstroside aglycon, and Oleuropein aglycon activated TAS2R1, TAS2R8 and TAS2R14 receptors. To validate the single dose scanning results, we performed concentration–response experiments for all the compounds toward receptors TAS2R1, TAS2R8, and TAS2R14 that produced the most significant responses (Fig. 4).
Figure 3 Phenolic compound bitter taste activity tests on hTAS2Rs. Relative fluorescence signals caused by phenolic compound activation of the receptors and the empty vector as a negative control. The concentration of the compounds used was [300 µM], except for Ligstroside aglycon and Oleuropein aglycon [200 µM], oleuropein that was [3 mM]. The asterisks indicate significant differences tested by one-way ANOVA (***p < 0.0001) (N = 2). Data represent mean ± SD.

TAS2R7 = target: T2, TAS2R7 (Homo sapiens, UniProt Q9NYW3); test: Calcium mobilization functional assay, TAS2R7; type: cell-based; conditions: 10 mM, versus empty pcDNA vector
T2 construct: first 45 amino acids of rat somatostatin type 3 receptor (SSTR3) export tag (N); expressed in transfected cells; host or cells: HEK293E
T2 sequence (Q9NYW3 whole entry): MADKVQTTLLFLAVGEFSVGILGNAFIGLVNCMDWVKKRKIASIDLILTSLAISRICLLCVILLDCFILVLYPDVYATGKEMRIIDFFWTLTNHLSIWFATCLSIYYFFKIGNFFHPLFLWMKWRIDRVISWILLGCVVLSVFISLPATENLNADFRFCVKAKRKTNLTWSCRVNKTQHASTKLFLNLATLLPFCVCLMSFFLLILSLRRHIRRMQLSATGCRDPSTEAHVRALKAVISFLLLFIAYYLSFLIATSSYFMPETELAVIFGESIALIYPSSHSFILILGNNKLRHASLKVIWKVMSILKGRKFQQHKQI
Text: as §1, §2

TAS2R3 = target: T3, TAS2R3 (Homo sapiens, UniProt Q9NYW6); test: Calcium mobilization functional assay, TAS2R3; type: cell-based; conditions: 10 mM, versus empty pcDNA vector
T3 construct: first 45 amino acids of rat somatostatin type 3 receptor (SSTR3) export tag (N); expressed in transfected cells; host or cells: HEK293E
T3 sequence (Q9NYW6 whole entry): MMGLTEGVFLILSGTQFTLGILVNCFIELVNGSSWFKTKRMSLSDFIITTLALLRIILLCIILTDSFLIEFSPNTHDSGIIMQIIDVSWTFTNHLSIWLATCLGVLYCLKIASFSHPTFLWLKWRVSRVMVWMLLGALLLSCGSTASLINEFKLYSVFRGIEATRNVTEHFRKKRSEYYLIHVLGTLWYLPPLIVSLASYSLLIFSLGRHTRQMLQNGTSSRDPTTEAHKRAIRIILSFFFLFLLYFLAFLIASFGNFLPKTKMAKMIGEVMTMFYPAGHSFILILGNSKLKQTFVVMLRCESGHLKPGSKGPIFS
Text: as §1, §2

TAS2R10 = target: T4, TAS2R10 (Homo sapiens, UniProt Q9NYW0); test: Calcium mobilization functional assay, TAS2R10; type: cell-based; conditions: 30 µM, versus empty pcDNA vector
T4 construct: first 45 amino acids of rat somatostatin type 3 receptor (SSTR3) export tag (N); expressed in transfected cells; host or cells: HEK293E
T4 sequence (Q9NYW0 whole entry): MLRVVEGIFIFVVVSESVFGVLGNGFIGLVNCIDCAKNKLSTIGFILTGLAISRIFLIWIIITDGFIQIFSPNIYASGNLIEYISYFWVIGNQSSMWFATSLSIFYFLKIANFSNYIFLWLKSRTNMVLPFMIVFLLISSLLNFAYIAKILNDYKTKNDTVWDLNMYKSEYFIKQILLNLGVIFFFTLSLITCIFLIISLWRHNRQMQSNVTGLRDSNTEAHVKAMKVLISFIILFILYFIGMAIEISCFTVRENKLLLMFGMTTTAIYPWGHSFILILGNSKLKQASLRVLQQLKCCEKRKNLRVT
Text: as §1, §2

TAS2R13 = target: T5, TAS2R13 (Homo sapiens, UniProt Q9NYV9); test: Calcium mobilization functional assay, TAS2R13; type: cell-based; conditions: 10 mM, versus empty pcDNA vector
T5 construct: first 45 amino acids of rat somatostatin type 3 receptor (SSTR3) export tag (N); expressed in transfected cells; host or cells: HEK293E
T5 sequence (Q9NYV9 whole entry): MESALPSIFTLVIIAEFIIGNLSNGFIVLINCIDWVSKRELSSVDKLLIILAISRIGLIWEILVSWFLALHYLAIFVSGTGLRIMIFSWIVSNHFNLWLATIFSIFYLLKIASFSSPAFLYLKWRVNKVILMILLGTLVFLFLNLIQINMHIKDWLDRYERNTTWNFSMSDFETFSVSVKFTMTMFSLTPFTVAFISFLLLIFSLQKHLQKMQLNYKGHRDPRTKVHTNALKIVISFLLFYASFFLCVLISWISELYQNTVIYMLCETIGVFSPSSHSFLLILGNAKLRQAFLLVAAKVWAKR
Text: as §1, §2

TAS2R9 = target: T6, TAS2R9 (Homo sapiens, UniProt Q9NYW1); test: Calcium mobilization functional assay, TAS2R9; type: cell-based; conditions: 20 mM, versus empty pcDNA vector
T6 construct: first 45 amino acids of rat somatostatin type 3 receptor (SSTR3) export tag (N); expressed in transfected cells; host or cells: HEK293E
T6 sequence (Q9NYW1 whole entry): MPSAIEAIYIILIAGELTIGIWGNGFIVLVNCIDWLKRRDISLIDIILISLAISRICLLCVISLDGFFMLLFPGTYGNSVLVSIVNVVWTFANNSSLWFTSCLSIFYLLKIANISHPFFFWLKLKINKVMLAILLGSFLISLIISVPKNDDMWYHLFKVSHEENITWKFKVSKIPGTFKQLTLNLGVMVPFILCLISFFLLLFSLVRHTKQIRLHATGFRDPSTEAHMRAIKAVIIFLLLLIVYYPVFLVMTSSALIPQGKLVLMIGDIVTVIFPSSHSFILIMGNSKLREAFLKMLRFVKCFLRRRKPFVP
Text: as §1, §2

TAS2R16 = target: T7, TAS2R16 (Homo sapiens, UniProt Q9NYV7); test: Calcium mobilization functional assay, TAS2R16; type: cell-based; conditions: 10 mM, versus empty pcDNA vector
T7 construct: first 45 amino acids of rat somatostatin type 3 receptor (SSTR3) export tag (N); expressed in transfected cells; host or cells: HEK293E
T7 sequence (Q9NYV7 whole entry): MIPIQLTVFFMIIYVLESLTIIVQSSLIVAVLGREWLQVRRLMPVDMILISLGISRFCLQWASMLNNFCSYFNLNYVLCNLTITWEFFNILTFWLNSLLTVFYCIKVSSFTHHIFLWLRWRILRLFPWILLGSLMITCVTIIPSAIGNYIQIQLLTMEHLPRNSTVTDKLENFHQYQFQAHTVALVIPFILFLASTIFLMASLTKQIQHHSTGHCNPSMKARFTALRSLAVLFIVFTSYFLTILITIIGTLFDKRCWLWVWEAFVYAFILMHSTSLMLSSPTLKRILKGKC
Text: as §1, §2

SMILES: C/C=C(/C=O)[C@@H](CC=O)CC(=O)OCCc1ccc(O)cc1 [Oleocanthal, oleocanthal]
activation of TRPA1 receptor/channels (TRPA1 receptor/channels): activates
activation of any TAS2R (25 human TAS2Rs): did not activate any TAS2Rs
activation of any TAS2R (25 human TAS2Rs; listed as oleocanthal): did not show any activation of bitter receptors; also recorded: failed to activate any TAS2Rs

SMILES: CC(=O)OC(C)(C)/C=C/C(=O)[C@](C)(O)[C@H]1[C@H](O)C[C@@]2(C)[C@@H]3CC=C4[C@@H](C=C(O)C(=O)C4(C)C)[C@]3(C)C(=O)C[C@]12C [cucurbitacin E]
activation of TAS2R10 (TAS2R10): activated

SMILES: CC[N+](C)(CC)CCOC(=O)C(O)(c1ccccc1)C1CCCCC1 (stereo not shown) [oxyphenonium]
activation of TAS2R13 (TAS2R13): activated

SMILES: OCc1ccccc1O[C@@H]1O[C@H](CO)[C@@H](O)[C@H](O)[C@H]1O [salicin]
activation of TAS2R16 (TAS2R16): activated

Further lines, results first:

activation of TAS2R5 (TAS2R5): activated
SMILES: c1cnc2c(c1)ccc1cccnc12 [1,10-phenanthroline]

activation of TAS2R7 (TAS2R7): activated
activation of TAS2R3 (TAS2R3): activated
SMILES: CCN(CC)CCCC(C)Nc1ccnc2cc(Cl)ccc12 (stereo not shown) [chloroquine]

activation of TAS2R9 (TAS2R9): activated
SMILES: CCN(CC)CCNC(=O)c1ccc(N)cc1 [procainamide]
